The target of assay [1] is T1, Full-length human PRMT6 (Homo sapiens, UniProt Q96LA8).
T1 construct: Flag-PRMT6-His was eluted with 200 ug/ml FLAG peptide in the same buffer; made in house; host or cells: HEK 293F cells (BacMam virus, pFastBacMam)
Put plainly: PRMT6 biochemical assay (3H-SAM Flashplate, peptide substrate). From the text:
General Materials. S-adenosylmethionine (SAM), S-adenosylhomocysteine (SAH), bicine, Tween20, dimethylsulfoxide (DMSO), bovine skin gelatin (BSG), sodium butyrate and Tris(2-carboxyethyl)phosphine hydrochloride solution (TCEP) were purchased from Sigma-Aldrich at the highest level of purity possible. ^3H-SAM was purchase from American Radiolabeled Chemicals with a specific activity of 80 Ci/mmol. 384-well streptavidin Flashplates were purchased from PerkinElmer.
Substrates. Peptide representative of human histone H4 residues 36-50 was synthesized with an N-terminal linker-affinity tag motif and a C-terminal amide cap by 21st Century Biochemicals.
The amplified gene was subcloned into pFastBacMam (Viva Biotech).
Protein Expression. Recombinant baculovirus were generated according to Bac-to-Bac kit instructions (Life Technologies). […] Infections were carried out at 37° C. for 48 hours, harvested by centrifugation, and stored at −80° C. for purification.
Protein Purification. […] Column was washed with 20 mM imidazole in the same buffer and Flag-PRMT6-His was eluted with 150 mM imidazole. Pooled fractions were dialysed against buffer Ni-A and further purified by anti-flag M2 affinity chromatography. Flag-PRMT6-His was eluted with 200 ug/ml FLAG peptide in the same buffer. Pooled fractions were dialysed in 20 mM Tris, 150 mM NaCl, 10% glycerol and 5 mM β-mercaptoethanol, pH 7.8.
(§1) General Procedure for PRMT6 Enzyme Assays on Peptide Substrates. The assays were all performed in a buffer consisting of 20 mM Bicine (pH=7.6), 1 mM TCEP, 0.005% BSG, and 0.002% Tween 20, prepared on the day of use. […] DMSO (1 ul) was added to Columns 11, 12, 23, 24, rows A-H for the maximum signal control and 1 ul of SAH, a known product and inhibitor of PRMT6, was added to columns 11, 12, 23, 24, rows I-P for the minimum signal control. A cocktail (40 ul) containing the PRMT6 enzyme was added by Multidrop Combi (Thermo-Fisher). The compounds were allowed to incubate with PRMT6 for 30 min at room temperature, then a cocktail (10 ul) containing SAM and peptide was added to initiate the reaction (final volume=51 ul). […] The assays were stopped by the addition of non-radiolabeled SAM (10 ul) to a final concentration of 400 uM, which dilutes the ^3H-SAM to a level where its incorporation into the peptide substrate is no longer detectable. 50 ul of the reaction in the 384-well polypropylene plate was then transferred to a 384-well Flashplate and the biotinylated peptides were allowed to bind to the streptavidin surface for at least 1 hour before being washed once with 0.1% Tween20 in a Biotek ELx405 plate washer. The plates were then read in a PerkinElmer TopCount plate reader to measure the quantity of ^3H-labeled peptide bound to the Flashplate surface, measured as disintegrations per minute (dpm) or alternatively, referred to as counts per minute (cpm).
(§2) Where dpm=disintegrations per minute, cmpd=signal in assay well, and min and max are the respective minimum and maximum signal controls.
(§3) Where top and bottom are the normally allowed to float, but may be fixed at 100 or 0 respectively in a 3-parameter fit. The Hill Coefficient normally allowed to float but may also be fixed at 1 in a 3-parameter fit. Y is the % inhibition and X is the compound concentration.

In assay [2] the test system is mono-methyl arginine in RKO cells. Put plainly: RKO methylation assay, In Cell Western for mono-methyl arginine and DNA content. Particulars: Homo sapiens; In Cell Western, RKO cells, 72 hours, percent activation of mono-methyl arginine signal; read-out: EC30. The assay is classed as cell-based. From the text: RKO adherent cells were purchased from ATCC (American Type Culture Collection), Manassas, Va., USA. DMEM/Glutamax medium, penicillin-streptomycin, heat inactivated fetal bovine serum, 0.05% trypsin and D-PBS were purchased from Life Technologies, Grand Island, N.Y., USA. Odyssey blocking buffer, 800CW goat anti-rabbit IgG (H+L) antibody, and Licor Odyssey infrared scanner were purchased from Licor Biosciences, Lincoln, Nebr., USA. Mono-methyl arginine antibody was purchased from Cell Signaling Technology, Danvers, Mass., USA. Methanol was purchased from VWR, Franklin, Mass., USA. 10% Tween 20 was purchased from KPL, Inc., Gaithersburg, Md., USA. […] was purchased from Biostatus Limited, Leicestershire, UK.
RKO adherent cells were maintained in growth medium (DMEM/Glutamax medium supplemented with 10% v/v heat inactivated fetal bovine serum and 100 units/mL penicillin-streptomycin) and cultured at 37° C. under 5% CO2
Cell Treatment, in Cell Western (ICW) for Detection of Mono-Methyl Arginine and DNA Content. […] Compound (100 nL) from a 96-well source plate was added directly to 384 well cell plate. Plates were incubated at 37° C., 5% CO2 for 72 hours. After three days of incubation, plates were brought to room temperature outside of the incubator for ten minutes and blotted on paper towels to remove cell media. 50 μL of ice cold 100% methanol was added directly to each well and incubated for 30 min at room temperature. After 30 min, plates were transferred to a Biotek EL406 plate washer and washed 2 times with 100 μL per well of wash buffer (1×PBS). Next 60 μL per well of Odyssey blocking buffer (Odyssey Buffer with 0.1% Tween 20 (v/v)) were added to each plate and incubated 1 hour at room temperature. Blocking buffer was removed and 20 μL per well of primary antibody was added (mono-methyl arginine diluted 1:200 in Odyssey buffer with 0.1% Tween 20 (v/v)) and plates were incubated overnight (16 hours) at 4° C. Plates were washed 5 times with 100 μL per well of wash buffer. […] The plates were washed 5 times with 100 μL per well wash buffer then 2 times with 100 μL per well of water. Plates were allowed to dry at room temperature then imaged on the Licor Odyssey machine which measures integrated intensity at 700 nm and 800 nm wavelengths. Both 700 and 800 channels were scanned.
Calculations: First, the ratio for each well was determined by:
Each plate included fourteen control wells of DMSO only treatment (minimum activation) as well as fourteen control wells for maximum activation treated with 20 μM of a reference compound. The average of the ratio values for each control type was calculated and used to determine the percent activation for each test well in the plate. Reference compound was serially diluted three-fold in DMSO for a total of nine test concentrations, beginning at 20 μM. Percent activation was determined and EC30 curves were generated using triplicate wells per concentration of compound.

Assay [3] deals with T2, Full-length human PRMT1 isoform 1 (Homo sapiens, UniProt Q99873).
T2 construct: GST-tagged PRMT1; made in house; host or cells: High Five insect cells (baculovirus, pFastBacI)
Put plainly: PRMT1 biochemical assay (3H-SAM Flashplate, peptide substrate).
Excerpt: General Materials. S-adenosylmethionine (SAM), S-adenosylhomocysteine (SAH), bicine, Tween20, dimethylsulfoxide (DMSO), bovine skin gelatin (BSG), and Tris(2-carboxyethyl)phosphine hydrochloride solution (TCEP) were purchased from Sigma-Aldrich at the highest level of purity possible. ^3H-SAM was purchase from American Radiolabeled Chemicals with a specific activity of 80 Ci/mmol. 384-well streptavidin Flashplates were purchased from PerkinElmer.
Protein Expression. Recombinant baculovirus were generated according to Bac-to-Bac kit instructions (Life Technologies). […] Infections were carried out at 27° C. for 48 hours, harvested by centrifugation, and stored at −80° C. for purification.
Protein Purification. […] GST-tagged PRMT1 was eluted with 50 mM Tris, 2 mM glutathione, pH 7.8, dialysed in buffer A and concentrated to 1 mg/mL.
as §1, with “PRMT1” for “PRMT6”, “PRMT1,” for “PRMT6,”, “300” for “400”
as §2, §3

pIC50: −log10 of the molar value. Where only a bound is given, the exact number is not on record here.

T2 sequence (Q99873 with tags, fused parts or gaps): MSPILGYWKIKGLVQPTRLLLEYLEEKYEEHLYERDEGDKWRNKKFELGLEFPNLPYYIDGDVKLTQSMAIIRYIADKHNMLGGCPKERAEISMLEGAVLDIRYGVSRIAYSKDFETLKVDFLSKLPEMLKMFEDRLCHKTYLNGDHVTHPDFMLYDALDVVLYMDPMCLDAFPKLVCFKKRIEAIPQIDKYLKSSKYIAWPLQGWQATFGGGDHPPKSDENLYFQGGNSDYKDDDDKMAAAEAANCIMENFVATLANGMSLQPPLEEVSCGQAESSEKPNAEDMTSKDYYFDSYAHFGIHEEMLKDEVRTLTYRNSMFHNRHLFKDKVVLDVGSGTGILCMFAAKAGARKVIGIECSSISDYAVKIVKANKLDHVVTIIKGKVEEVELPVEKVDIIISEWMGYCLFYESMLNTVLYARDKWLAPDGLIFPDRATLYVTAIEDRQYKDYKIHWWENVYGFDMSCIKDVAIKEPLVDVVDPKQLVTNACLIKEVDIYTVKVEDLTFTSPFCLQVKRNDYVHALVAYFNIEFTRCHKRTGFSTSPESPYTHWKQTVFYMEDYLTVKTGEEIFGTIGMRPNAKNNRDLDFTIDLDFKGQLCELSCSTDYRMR
T1 sequence (Q96LA8 with tags, fused parts or gaps): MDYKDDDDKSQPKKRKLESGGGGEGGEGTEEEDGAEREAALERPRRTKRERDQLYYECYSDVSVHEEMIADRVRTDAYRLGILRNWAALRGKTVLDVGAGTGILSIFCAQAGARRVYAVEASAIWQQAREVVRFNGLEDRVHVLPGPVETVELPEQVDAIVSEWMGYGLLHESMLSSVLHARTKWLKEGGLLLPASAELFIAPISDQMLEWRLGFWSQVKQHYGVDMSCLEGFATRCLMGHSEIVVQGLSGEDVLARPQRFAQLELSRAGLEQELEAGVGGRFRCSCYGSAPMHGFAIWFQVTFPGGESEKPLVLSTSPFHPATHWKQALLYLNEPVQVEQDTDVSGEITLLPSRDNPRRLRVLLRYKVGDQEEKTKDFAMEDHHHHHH

As for `CNCCN(C)Cc1c[nH]nc1-c1ccc(OC(C)C)cc1` [Compound 19, N^1-((3-(4-isopropoxyphenyl)-1H-pyrazol-4-yl)methyl)-N^1,N^2-dimethylethane-1,2-diamine], in assay [1], the pIC50 is > 7.00. In assay [2], the EC30 was < 3000 nM.

For `CNCCN(C)Cc1c[nH]nc1-c1ccc(OC2CCOCC2)cc1` [Compound 175], the pIC50 in assay [1] and in assay [3] was > 7.00 in each case. Also, the EC30 in assay [2] is < 3000 nM.

Take `CC(C)Oc1ccc(-c2nn(C)cc2CN(C)CCN)cc1` [Compound 176]: the pIC50 in assay [1] and in assay [3] was > 7.00 in each case. Besides, the EC30 in assay [2] is < 3000 nM.

Consider `CC(C)Oc1ccc(-c2c(CN(C)CCN)cnn2C)cc1` [Compound 177], for which the pIC50 in assay [1] and in assay [3] was > 7.00 each time. For the same molecule, the EC30 in assay [2] is < 3000 nM.

For `CN(CCN)Cc1c[nH]nc1-c1ccc(OC2CCOCC2)cc1` [Compound 178], the pIC50 in assay [1] and in assay [3] was > 7.00 each time. The EC30 in assay [2] was < 3000 nM.

With `COCCCOc1ccc(-c2n[nH]cc2CN(C)CCN)cc1` [Compound 179], the pIC50 in assay [1] and in assay [3] was > 7.00 each time. Further, the EC30 in assay [2] is < 3000 nM.

On to `CNCCN(C)Cc1c[nH]nc1-c1ccc(OC(C)C)c(F)c1` [Compound 181], for which the pIC50 in assay [1] and in assay [3] was > 7.00 throughout. The EC30 in assay [2] was > 12000 nM.

Regarding `CN(CCN)Cc1c[nH]nc1-c1ccc(OCCCN2CCOCC2)cc1` [Compound 186], the pIC50 in assay [1] was > 7.00. Also, the EC30 in assay [2] is > 12000 nM.

As for `CN(CCN)Cc1c[nH]nc1-c1ccc(N2CCN(C(=O)Cc3ccccc3)CC2)cc1` [Compound 190], in assay [1], the pIC50 is > 7.00. Besides, the EC30 in assay [2] was in the range of 3010 to 12000 nM.

Consider `CN(CCN)Cc1c[nH]nc1-c1ccc(Oc2ccccc2)cc1` [Compound 200], for which the EC30 in assay [2] is < 3000 nM.

`CNCCN(C)Cc1cn[nH]c1-c1ccc(OC(C)C)c(Cl)c1` [Compound 201]: in assay [1], the pIC50 is > 7.00. Moreover, in assay [2], the EC30 is < 3000 nM.

For `CNCCN(C)Cc1cnn(C)c1-c1ccc(OC(C)C)c(Cl)c1` [Compound 220, N^1-((5-(3-chloro-4-isopropoxyphenyl)-1-methyl-1H-pyrazol-4-yl)methyl)-N^1,N^2-dimethylethane-1,2-diamine], the pIC50 in assay [1] was > 7.00. Further, the EC30 in assay [2] is < 3000 nM.

Turning to `COCCn1cnc(-c2ccc(C#N)cc2)c1CN(C)CCN` [Compound 223], in assay [3], the pIC50 is < 5.00. In addition, the EC30 in assay [2] is > 12000 nM.

For `CNCCN(C)Cc1c[nH]nc1-c1cc(C(C)C)cc(C(C)C)c1` [Compound 229, N^1-((3-(3,5-diisopropylphenyl)-1H-pyrazol-4-yl)methyl)-N^1,N^2-dimethylethane-1,2-diamine], the pIC50 is 6.00 to 7.00 in assay [1] and > 7.00 in assay [3]. Also, in assay [2], the EC30 lay in the range of 3010 to 12000 nM.

`CNCCN(C)Cc1c[nH]nc1-c1ccc(Oc2cccc(OC)c2)cc1` [Compound 230]: the pIC50 in assay [1] and in assay [3] was > 7.00 throughout. Further, in assay [2], the EC30 is < 3000 nM.

As for `CNCCN(C)Cc1c[nH]nc1-c1ccc(Oc2cccc(F)c2)cc1` [Compound 231], the pIC50 in assay [1] and in assay [3] was > 7.00 each time. Further, the EC30 in assay [2] was < 3000 nM.

On to `CNCCN(C)Cc1c[nH]nc1-c1ccc(Oc2ccccc2)c(C(=O)NC)c1` [Compound 232], for which the pIC50 in assay [1] and in assay [3] was > 7.00 in each case. Further, the EC30 in assay [2] lay in the range of 3010 to 12000 nM.

As for `CNCCN(C)Cc1c[nH]nc1-c1ccc(Oc2ccccc2)c(C(=O)N(C)C)c1` [Compound 233], the pIC50 in assay [1] and in assay [3] was > 7.00 throughout. The EC30 in assay [2] is > 12000 nM.

Consider `CNCCN(C)Cc1c[nH]nc1-c1ccc(Oc2cccc(C(=O)N(C)C)c2)cc1` [Compound 264], for which, in assay [1], the pIC50 was > 7.00. In addition, the EC30 in assay [2] was in the range of 3010 to 12000 nM.

As for `CNCCN(C)Cc1n[nH]cc1-c1ccc(Oc2cccc(C(=O)N(C)C)c2)cc1` [Compound 269], the pIC50 in assay [1] was > 7.00. Moreover, in assay [2], the EC30 is > 12000 nM.

`CNCCN(C)Cc1n[nH]cc1-c1ccc(Oc2ccccc2C(=O)NC)cc1` [Compound 278]: the pIC50 in assay [1] is > 7.00. The EC30 in assay [2] is 3010 to 12000 nM.

The record behind these values is patent US9346761B2, “Arginine methyltransferase inhibitors and uses thereof” (Epizyme, Inc., priority 2013, dated 2016).
